From patent US20040228889A1, “Use of N-arylmethylene ethylenediaminetriacetates, N-arylmethylene iminodiacetated or N,N'-diarylmethylene ethylenediamineacetates as doners of NO” (L'OREAL S.A., priority 2003, published 2004)

Tests used:
[1] = tested on: normal human keratinocytes; assay: cytotoxicity, % diminution of the signal compared with the control; format: cell-based; settings: concentration equal to or lower than 500 μM
Description: Moreover, the cytotoxicity was expressed as % diminution of the signal compared with the control. A product was considered not to be very cytotoxic from 0-20%, acceptable up to 40% and not retained for values >40%.

[2] = target: T1, inducible NO synthase (NOS2) (Homo sapiens, UniProt P35228); assay: screening test of the modulation of induction of NOS2 by normal human keratinocytes (nitrite and nitrate measurement); format: cell-based; settings: for % inhibition: cytokine-induced normal human keratinocytes, nitrites and nitrates
T1 construct: endogenous in cells; host or cells: normal human keratinocytes (primary culture), induced with interferon-gamma and interleukin 1-beta
Experimental: The activity of N,N′-bis-(3,4,5-trimethoxybenzyl) ethylenediamine-diacetic acid on the inducible NO synthase was evaluated in the assay described by Heck et al. (J.B.C., vol. 267, No. 30, 21277-21280, 25 Oct. 1992), a screening test of the modulation of induction of NOS2 by normal human keratinocytes. The objective of this test is, briefly, to evaluate the concentration of nitrate and nitrite after stimulation of the NO-synthase 2.
The test is carried out on a culture of normal human keratinocytes, derived from samples taken. The induction of the inducible NO synthase (NOS2) was caused by the addition of a combination of several cytokines to the culture medium. The product tested was applied at three concentrations varying from 10 to 1000 μM.
The product tested was classed in one of the following two categories: inhibitor (I) or donor (D) of NO (nitric oxide) according to its capacity to diminish or increase, respectively, the quantity of nitrites and nitrates produced compared to the control signal […].
The following controls were introduced in the test:
A: positive control (induction of the enzyme): mixtures of interferon-γ(1000 u/ml) and interleukin 1-β (100 u/ml)
In order to determine the activity of the test product the quantity of stable NO reaction products (nitrites and nitrates) is measured with the aid of the “nitric colorimetric assay” kit sold by the Boehringer company under catalogue number 1756.28.
N,N′-bis(3,4,5-trimethoxybenzyl) ethylenediamine-diacetic acid was tested at concentrations of 100 μM, 500 μM and 1000 μM in ethanol.

T1 sequence (P35228 whole entry): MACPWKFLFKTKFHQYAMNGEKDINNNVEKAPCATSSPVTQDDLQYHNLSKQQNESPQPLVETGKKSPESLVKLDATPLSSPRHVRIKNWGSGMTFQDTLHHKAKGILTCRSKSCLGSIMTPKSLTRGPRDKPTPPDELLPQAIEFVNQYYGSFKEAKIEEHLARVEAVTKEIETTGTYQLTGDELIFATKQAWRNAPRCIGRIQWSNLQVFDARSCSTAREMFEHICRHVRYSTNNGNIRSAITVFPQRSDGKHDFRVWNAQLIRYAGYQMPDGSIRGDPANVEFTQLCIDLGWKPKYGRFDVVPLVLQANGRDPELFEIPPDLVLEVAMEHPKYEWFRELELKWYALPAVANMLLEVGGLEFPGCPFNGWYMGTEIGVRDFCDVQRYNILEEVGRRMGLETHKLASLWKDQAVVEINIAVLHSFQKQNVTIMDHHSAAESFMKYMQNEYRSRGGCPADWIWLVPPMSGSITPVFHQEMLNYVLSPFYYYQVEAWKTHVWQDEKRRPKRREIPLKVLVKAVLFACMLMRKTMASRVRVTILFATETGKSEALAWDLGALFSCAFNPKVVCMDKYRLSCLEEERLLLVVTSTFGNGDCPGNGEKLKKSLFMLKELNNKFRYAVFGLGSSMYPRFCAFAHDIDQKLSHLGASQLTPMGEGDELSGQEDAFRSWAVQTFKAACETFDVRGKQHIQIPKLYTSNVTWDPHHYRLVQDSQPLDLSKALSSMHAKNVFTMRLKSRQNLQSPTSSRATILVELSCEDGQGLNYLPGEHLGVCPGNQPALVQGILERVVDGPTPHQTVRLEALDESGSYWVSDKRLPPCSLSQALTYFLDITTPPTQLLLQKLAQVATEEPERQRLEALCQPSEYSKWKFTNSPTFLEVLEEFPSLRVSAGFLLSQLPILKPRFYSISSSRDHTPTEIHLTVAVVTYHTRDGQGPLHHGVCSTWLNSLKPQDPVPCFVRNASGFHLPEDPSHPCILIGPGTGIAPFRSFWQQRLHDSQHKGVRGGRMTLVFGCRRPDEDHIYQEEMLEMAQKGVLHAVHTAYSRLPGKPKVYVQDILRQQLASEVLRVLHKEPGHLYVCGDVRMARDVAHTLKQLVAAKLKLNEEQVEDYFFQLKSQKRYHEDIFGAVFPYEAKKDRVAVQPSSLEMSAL

classification as inhibitor (I) or donor (D) of NO ([2]; quantity of nitrites and nitrates produced compared to the control signal): NO donor effect
% inhibition ([2]; test product 100 μM in ethanol): 29%
% inhibition ([2]; test product 500 μM in ethanol): 70%
% inhibition ([2]; test product 1000 μM in ethanol): 84%
Compound: COc1cc(CN(CCN(CC(=O)O)Cc2cc(OC)c(OC)c(OC)c2)CC(=O)O)cc(OC)c1OC [N,N′-bis-(3,4,5-trimethoxybenzyl) ethylenediamine-diacetic acid]
cytotoxicity [1]: not toxic
